Test results published in ChEMBL document CHEMBL1201862, “PubChem BioAssay data set” (2004).
“And” between values parts separate entries of the source, which are not always exact repeats. Identical values can stand only once. The source made the active and inactive calls.

What was measured:
[1] = cytotoxicity in HEK-293T cells, dose response, cytotoxicity control for BCR NF-kB inhibitor project, luminescence, B-cell screen hits (AID 489021); assay type: functional, cell-based;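 further: HEK-293T cells carrying an NF-kB luciferase reporter; cells exposed to compound for about 14 hours before viability readout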
Jurkat [2] = assay: SAR Analysis of small molecule inhibitors of […] specific antigen receptor-induced NF-kB activation in a Jurkat cell line using a luminescence assay - Set 3. [Related pubchem assays (depositor defined):AID435022, AID435025, AID465]; assay type: functional, cell-based; settings: Homo sapiens
HEK293 [3] = assay: SAR Analysis of small molecule inhibitors of B-cell specific antigen receptor-induced NF-kB activation in a HEK-293T cell line using a luminescence assay - Set 2. [Related pubchem assays (depositor defined):AID435022, AID435025, AID489021]; assay type: functional, cell-based; settings: Homo sapiens
HEK293 [4] = assay: cytotoxicity in HEK293T NF-kB-Luc cells, SAR follow-up, cytotoxicity control for NF-kB activator project, cell-based, resazurin fluorescence (AID 493251); assay type: functional; settings: Homo sapiens
[5] = cytotoxicity in HEK-293T NF-kB-Luc cells, dose response, cytotoxicity control for B/T-cell NF-kB inhibitor project, cell-based, uHTS hits (AID 489019); assay type: functional;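 further: IC50 reflects cytotoxicity as loss of cell viability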
Jurkat [6] = assay: antigen receptor-induced NF-kB inhibitors, dose response, Jurkat, luciferase reporter, luminescence, B- and T-cell (AID 489004); assay type: functional, cell-based; settings: Homo sapiens;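 further: NF-kB luciferase reporter Jurkat cells stimulated with PMA plus ionomycin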
[7] = target: T1, Carboxy-terminal domain RNA polymerase II polypeptide A small phosphatase 1 (Homo sapiens, UniProt Q9GZU7); assay: inhibitors of CTDSP1, concentration-response testing, biochemical assay, absorbance-based, actives from ultra-high-throughput screening (AID 540297); assay type: functional
T1 sequence (Q9GZU7 whole entry): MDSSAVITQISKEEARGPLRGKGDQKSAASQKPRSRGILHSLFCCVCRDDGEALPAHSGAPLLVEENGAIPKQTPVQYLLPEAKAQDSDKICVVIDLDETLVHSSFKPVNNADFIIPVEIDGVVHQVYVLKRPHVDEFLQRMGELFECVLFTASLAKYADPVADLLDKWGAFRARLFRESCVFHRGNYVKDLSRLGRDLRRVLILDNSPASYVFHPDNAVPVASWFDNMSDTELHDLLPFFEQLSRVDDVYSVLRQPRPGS

[8] = target: Beta-adrenergic receptor kinase 1 (Homo sapiens, UniProt P25098); assay: GRK2 inhibitors displacing RNA aptamer, dose response, biochemical, flow cytometry beads, FAM-aptamer, powder set 1 (AID 588720)
Sequence of Beta-adrenergic receptor kinase 1 (P25098 whole entry): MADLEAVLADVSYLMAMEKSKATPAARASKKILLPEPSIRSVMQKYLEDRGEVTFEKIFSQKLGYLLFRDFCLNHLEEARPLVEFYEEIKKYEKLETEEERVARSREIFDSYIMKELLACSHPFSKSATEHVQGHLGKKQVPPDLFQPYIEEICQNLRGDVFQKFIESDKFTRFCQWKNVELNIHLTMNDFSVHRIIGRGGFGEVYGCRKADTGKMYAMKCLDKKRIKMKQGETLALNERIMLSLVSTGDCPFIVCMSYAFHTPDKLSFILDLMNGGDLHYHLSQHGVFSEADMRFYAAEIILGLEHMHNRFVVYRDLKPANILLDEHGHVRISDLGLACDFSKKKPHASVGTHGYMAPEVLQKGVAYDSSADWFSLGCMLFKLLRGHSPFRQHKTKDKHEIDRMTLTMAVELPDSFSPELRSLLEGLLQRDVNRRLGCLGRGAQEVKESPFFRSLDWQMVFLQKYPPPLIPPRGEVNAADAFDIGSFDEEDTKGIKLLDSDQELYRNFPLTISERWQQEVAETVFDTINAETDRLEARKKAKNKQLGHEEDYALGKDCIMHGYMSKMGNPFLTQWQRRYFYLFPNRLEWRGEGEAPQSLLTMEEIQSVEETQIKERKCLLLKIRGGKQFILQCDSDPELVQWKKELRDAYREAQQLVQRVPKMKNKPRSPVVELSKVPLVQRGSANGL

[9] = target: T2, Dual specificity protein phosphatase 3 (Homo sapiens, UniProt P51452); assay: VHR1 phosphatase inhibitors, primary screen, biochemical, absorbance, uHTS (AID 1654)
T2 sequence (P51452 whole entry): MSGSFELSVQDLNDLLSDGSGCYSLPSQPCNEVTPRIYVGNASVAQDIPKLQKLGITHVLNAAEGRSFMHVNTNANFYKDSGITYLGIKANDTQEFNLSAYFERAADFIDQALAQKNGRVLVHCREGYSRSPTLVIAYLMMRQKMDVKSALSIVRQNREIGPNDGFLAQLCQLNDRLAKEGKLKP

[10] = target: T3, Tyrosine-protein phosphatase non-receptor type 7 (Homo sapiens, UniProt P35236); assay: redox-dependent HePTP inhibition, mechanism study, biochemical, fluorescence (AID 2068); assay type: functional
T3 sequence (P35236 whole entry): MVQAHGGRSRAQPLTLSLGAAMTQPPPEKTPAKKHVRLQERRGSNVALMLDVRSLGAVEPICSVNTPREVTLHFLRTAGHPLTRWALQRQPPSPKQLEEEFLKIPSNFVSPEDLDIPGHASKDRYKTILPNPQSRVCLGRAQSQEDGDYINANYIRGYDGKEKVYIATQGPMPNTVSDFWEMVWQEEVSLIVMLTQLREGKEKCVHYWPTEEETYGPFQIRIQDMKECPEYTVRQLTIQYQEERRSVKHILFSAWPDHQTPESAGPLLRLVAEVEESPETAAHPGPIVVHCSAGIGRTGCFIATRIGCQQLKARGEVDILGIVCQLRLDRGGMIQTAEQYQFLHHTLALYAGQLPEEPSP

[11] = target: T4, Dual specificity protein phosphatase 6 (Rattus norvegicus, UniProt Q64346); assay: MKP-3 phosphatase inhibitors, primary screen, biochemical, rat enzyme, in vitro (AID 425)
T4 sequence (Q64346 whole entry): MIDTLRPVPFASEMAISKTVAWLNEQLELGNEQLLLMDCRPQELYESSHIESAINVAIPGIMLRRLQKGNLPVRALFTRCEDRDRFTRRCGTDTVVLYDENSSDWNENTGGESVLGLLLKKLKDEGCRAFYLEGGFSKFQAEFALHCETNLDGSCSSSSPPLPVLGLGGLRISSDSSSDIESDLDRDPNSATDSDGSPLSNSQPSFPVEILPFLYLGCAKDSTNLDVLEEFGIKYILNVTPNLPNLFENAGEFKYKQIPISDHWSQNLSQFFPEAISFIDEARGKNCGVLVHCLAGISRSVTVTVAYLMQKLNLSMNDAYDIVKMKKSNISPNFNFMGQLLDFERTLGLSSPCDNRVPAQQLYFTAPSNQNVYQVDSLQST

[12] = target: DNA dC->dU-editing enzyme APOBEC-3A (Homo sapiens, UniProt P31941); assay: APOBEC3A DNA deaminase inhibitors, dose response, biochemical (AID 504722); assay type: functional
Sequence of DNA dC->dU-editing enzyme APOBEC-3A (P31941 whole entry): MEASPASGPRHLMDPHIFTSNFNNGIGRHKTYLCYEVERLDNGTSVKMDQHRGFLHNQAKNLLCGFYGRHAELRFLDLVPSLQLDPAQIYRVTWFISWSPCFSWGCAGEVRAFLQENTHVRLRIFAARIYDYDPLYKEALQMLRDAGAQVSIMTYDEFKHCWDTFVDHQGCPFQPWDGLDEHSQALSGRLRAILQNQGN

[13] = target: T2, Dual specificity protein phosphatase 3; assay: VHR1 phosphatase inhibitors, biochemical (AID 1878)
[14] = target: T3, Tyrosine-protein phosphatase non-receptor type 7; assay: SAR analysis of chemical inhibitors of HePTP using a Fluorescent assay - Set 2. [Related pubchem assays (depositor defined):AID1059, AID1077, AID1661, AID2085, AID521]; assay type: functional
[15] = target: T2, Dual specificity protein phosphatase 3; assay: SAR VHR1 absorbance Assay for In Vitro dose response studies. [Related pubchem assays (depositor defined):AID1654, AID1661, AID1878, AID1992, AID2004]
[16] = target: T2, Dual specificity protein phosphatase 3; assay: SAR VHR1 Fluorescent Assay for In Vitro dose response studies. [Related pubchem assays (depositor defined):AID1654, AID1661, AID1878, AID1992, AID2004, AID2070, AID2085]; assay type: functional
[17] = target: T2, Dual specificity protein phosphatase 3; assay: SAR VHR1 Fluorescent Assay for In Vitro dose response studies Set 2. [Related pubchem assays (depositor defined):AID1654, AID1661, AID1878]; assay type: functional
[18] = target: T5, Rac GTPase-activating protein 1 (Homo sapiens, UniProt Q9H0H5); assay: MgcRacGAP GTPase-activating activity inhibitors, confirmation, biochemical, ADP Hunter fluorescence, primary and confirmatory (AID 624330); assay type: functional
T5 sequence (Q9H0H5 whole entry): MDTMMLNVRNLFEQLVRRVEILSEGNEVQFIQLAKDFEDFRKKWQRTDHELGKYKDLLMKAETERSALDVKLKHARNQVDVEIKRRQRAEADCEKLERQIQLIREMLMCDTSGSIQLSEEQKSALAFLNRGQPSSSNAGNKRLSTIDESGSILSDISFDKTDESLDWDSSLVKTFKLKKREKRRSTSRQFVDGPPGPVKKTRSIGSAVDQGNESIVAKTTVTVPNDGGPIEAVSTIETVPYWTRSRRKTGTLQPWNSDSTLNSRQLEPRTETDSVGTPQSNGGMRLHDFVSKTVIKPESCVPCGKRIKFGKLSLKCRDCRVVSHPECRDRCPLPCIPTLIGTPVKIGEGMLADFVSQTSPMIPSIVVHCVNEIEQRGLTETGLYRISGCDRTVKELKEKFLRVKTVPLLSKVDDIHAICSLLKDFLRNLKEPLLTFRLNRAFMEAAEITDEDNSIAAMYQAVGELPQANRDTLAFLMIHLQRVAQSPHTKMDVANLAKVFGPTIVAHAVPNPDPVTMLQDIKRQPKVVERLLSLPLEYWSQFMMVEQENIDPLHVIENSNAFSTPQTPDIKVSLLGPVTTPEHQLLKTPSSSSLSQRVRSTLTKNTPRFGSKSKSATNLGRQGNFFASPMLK

[19] = target: Glucose-6-phosphate 1-dehydrogenase (Homo sapiens, UniProt P11413); assay: human G6PD enzyme inhibitors, dose response, selectivity assay for P. falciparum G6PD inhibitor project, biochemical, fluorescence (AID 504792); assay type: functional
Sequence of Glucose-6-phosphate 1-dehydrogenase (P11413 whole entry): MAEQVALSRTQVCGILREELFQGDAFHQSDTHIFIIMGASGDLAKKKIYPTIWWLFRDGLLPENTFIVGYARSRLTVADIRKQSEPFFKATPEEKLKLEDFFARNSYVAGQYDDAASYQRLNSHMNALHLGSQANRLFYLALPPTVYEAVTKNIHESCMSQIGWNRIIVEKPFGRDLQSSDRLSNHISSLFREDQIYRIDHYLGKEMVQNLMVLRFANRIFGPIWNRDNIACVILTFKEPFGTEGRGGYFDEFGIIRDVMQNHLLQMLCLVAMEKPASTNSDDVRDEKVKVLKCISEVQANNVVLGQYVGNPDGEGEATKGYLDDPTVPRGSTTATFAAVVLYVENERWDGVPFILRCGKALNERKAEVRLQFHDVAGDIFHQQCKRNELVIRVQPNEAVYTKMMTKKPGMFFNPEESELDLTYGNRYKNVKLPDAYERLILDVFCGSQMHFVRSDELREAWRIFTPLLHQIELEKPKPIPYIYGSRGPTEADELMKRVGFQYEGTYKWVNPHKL

[20] = target: T3, Tyrosine-protein phosphatase non-receptor type 7; assay: HePTP (PTPN7) phosphatase inhibitor potency, SAR follow-up, biochemical, set 2 (AID 449736); assay type: functional
[21] = target: T4, Dual specificity protein phosphatase 6; assay type: functional
[22] = target: T4, Dual specificity protein phosphatase 6; assay: SAR analysis of inhibitors of MKP-3 - Set 2. [Related pubchem assays (depositor defined):AID1055, AID1661, AID425, AID553, AID566]; assay type: functional
[23] = target: DNA dC->dU-editing enzyme APOBEC-3G (Homo sapiens, UniProt Q9HC16); assay: Dose Response confirmation of small molecule APOBEC3G DNA Deaminase Inhibitors via a fluorescence-based single-stranded DNA deaminase assay. [Related pubchem assays (depositor defined):AID493012, AID493028]; assay type: functional
Sequence of DNA dC->dU-editing enzyme APOBEC-3G (Q9HC16 whole entry): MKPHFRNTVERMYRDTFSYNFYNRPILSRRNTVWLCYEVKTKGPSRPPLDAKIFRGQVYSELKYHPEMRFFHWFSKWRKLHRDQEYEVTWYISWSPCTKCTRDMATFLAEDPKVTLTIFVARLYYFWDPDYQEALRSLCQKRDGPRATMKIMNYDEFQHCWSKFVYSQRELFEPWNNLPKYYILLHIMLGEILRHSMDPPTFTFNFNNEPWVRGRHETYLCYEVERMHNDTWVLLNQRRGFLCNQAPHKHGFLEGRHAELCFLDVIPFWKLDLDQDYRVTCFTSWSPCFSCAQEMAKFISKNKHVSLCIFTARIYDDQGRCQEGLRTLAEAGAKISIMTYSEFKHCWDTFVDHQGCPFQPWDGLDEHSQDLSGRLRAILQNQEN

[24] = Luminescent dose response cell-based high throughput screening assay for inhibitors of the Janus kinase 2 mutant JAK2V617F. [Related pubchem assays: 1446 (Primary screen.), 1521 (Confirmation assay.), 1486 (Counter screen.)]; assay type: functional
[25] = target: T6, Microphthalmia-associated transcription factor (Homo sapiens, UniProt O75030); assay: TRPM1 promoter luciferase signal decrease, dose response, MITF inhibitor project, cell-based, SK-MEL-5, cherry-picked, set 3 (AID 493073); assay type: functional
T6 sequence (O75030 whole entry): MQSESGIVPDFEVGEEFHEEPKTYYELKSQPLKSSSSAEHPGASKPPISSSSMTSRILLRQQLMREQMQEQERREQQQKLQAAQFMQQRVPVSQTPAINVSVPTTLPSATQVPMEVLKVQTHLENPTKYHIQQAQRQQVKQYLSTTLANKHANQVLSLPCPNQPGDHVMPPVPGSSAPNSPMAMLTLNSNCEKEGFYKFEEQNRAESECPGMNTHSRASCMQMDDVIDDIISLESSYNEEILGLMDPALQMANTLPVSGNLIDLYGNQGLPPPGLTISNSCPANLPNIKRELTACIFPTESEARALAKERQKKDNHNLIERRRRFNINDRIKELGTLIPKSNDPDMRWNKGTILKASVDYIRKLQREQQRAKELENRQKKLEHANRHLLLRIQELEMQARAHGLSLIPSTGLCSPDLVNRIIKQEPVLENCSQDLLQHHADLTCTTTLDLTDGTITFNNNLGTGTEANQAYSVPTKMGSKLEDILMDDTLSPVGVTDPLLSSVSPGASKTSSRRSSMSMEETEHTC

Paired box protein Pax-8 = Paired box protein Pax-8 (Homo sapiens, UniProt Q06710); assay: inhibitors of PAX8-driven TPO luciferase reporter, dose response, RMG-I cells, cherry-pick (AID 687027); assay type: functional, cell-based;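 further: luciferase reporter driven by Pax8 target thyroperoxidase promoter measured by SteadyGlo luminescence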
Sequence of Paired box protein Pax-8 (Q06710 whole entry): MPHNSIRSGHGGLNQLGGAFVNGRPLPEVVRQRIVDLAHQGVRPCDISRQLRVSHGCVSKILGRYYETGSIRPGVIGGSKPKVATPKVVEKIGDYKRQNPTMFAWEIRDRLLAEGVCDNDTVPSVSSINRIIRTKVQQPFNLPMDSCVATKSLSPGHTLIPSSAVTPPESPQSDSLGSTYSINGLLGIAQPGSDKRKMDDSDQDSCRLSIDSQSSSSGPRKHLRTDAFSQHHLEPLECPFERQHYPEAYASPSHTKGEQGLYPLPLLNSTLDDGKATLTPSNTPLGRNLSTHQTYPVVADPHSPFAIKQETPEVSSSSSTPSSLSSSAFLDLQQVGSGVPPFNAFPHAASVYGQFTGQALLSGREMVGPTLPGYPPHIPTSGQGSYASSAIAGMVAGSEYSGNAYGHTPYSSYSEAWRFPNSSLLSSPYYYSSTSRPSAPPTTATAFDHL

A-375 = assay: MITF: Counter assay: A375 proliferation Measured in Cell-Based System Using Plate Reader - 2084-03_Inhibitor_Dose_DryPowder_Activity. [Related pubchem assays (depositor defined):AID488944]; assay type: functional; settings: Homo sapiens

CCCNC(=O)CSCc1nc(-c2ccc(SC)cc2)oc1C
IC50 [1]: > 80 µM (inactive)
IC50 (Jurkat [2]): > 80 µM (inactive)
IC50 (HEK293 [3]): 42.5 µM (inactive)
IC50 (HEK293 [4]): > 80 µM (inactive)

Cn1nc(CC(=O)Nc2ccc3c(c2)CCC3)c2ccccc2c1=O
IC50 [5]: > 80 µM (inactive)
IC50 (Jurkat [6]): > 80 µM (inactive)

O=C(CCS(=O)(=O)c1ccc(Br)cc1)Nc1ccc(Br)cc1F
IC50 [7]: 22 µM (active)
EC50 [8]: 21.2 µM (active)

CN1CCN(C(=O)c2sc(=S)n(-c3ccccc3)c2N)CC1
IC50 [9]: 1.27 µM (active)
IC50 [10]: 0.0586 µM (active)
IC50 [11]: > 158 µM (not active)
IC50 [12]: > 100 µM (inactive)
IC50 [13]: 3.53 µM (active)
IC50 [14]: 1.05 µM (active)
IC50 [15]: 0.53 µM (active)
IC50 [16]: > 99 µM (inactive)
IC50 [17]: 0.26 µM (active)
IC50 [18]: 191 µM (active)
IC50 [19]: > 80 µM (inactive)
IC50 [20]: 1.14 µM (active) and > 100 µM (inactive) and 7.06 µM (active)
IC50 [21]: > 99 µM (inactive)
IC50 [22]: > 100 µM (inactive)
IC50 [23]: 5.51 µM (active)

Cc1ccc2nc(C)cc(Nc3ccc([N+](=O)[O-])cc3)c2c1
IC50 [24]: 1.29 µM (active)
AC50 [25]: 5.88 µM (active)
AC50 (Paired box protein Pax-8): 5.33 µM (active)
AC50 (A-375): 24.7 µM (active)
